# From BindingDB's records for doi:10.1074/jbc.M113.521955 (Albert Einstein College of Medicine, 2013)
# pKi: −log10 of the molar value.
# What was measured:
# [1] = target: T1, Orotate phosphoribosyltransferase (Plasmodium falciparum (isolate 3D7), UniProt Q8I3Y0); assay: Inhibition Assay; conditions: pH 8; 25 °C
# T1 sequence (Q8I3Y0 whole entry): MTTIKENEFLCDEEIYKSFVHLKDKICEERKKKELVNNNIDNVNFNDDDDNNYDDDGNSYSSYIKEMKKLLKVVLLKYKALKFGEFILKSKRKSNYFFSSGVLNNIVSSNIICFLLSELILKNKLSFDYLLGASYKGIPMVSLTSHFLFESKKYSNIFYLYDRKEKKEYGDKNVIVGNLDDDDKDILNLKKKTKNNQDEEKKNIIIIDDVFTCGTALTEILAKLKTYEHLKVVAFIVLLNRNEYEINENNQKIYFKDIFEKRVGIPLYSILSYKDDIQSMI
# Experimental: (§1) In all cases, the inhibitor concentration was at least 10 times the enzyme concentration. Reaction rates were monitored through the absorbance increase at 295 nm to give an extinction coefficient of 3.67 mM-1 cm-1 [Abdo et al., Org. Lett., 12:2982-2985].
# [2] = target: T2, Uridine 5'-monophosphate synthase (Homo sapiens, UniProt P11172); assay: Inhibition Assay; conditions: pH 8; 25 °C
# T2 sequence (P11172 whole entry): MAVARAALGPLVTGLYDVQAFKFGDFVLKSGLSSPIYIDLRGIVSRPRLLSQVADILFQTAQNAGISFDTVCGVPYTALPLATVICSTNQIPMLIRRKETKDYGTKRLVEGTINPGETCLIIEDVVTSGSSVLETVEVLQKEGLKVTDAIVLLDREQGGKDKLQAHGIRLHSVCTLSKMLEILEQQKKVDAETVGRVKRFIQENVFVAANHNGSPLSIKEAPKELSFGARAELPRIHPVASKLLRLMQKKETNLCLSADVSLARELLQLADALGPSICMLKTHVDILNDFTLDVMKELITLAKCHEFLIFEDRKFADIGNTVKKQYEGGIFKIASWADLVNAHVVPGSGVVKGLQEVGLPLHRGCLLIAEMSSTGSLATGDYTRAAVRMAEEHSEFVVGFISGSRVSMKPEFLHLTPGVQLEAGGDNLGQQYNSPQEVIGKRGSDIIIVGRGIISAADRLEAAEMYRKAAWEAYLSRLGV
# Experimental: as §1
SMILES,pKi [1],pKi [2]
"O=c1[nH]c(=O)n(C[C@@H]2N[C@H](COP(=O)(O)O)C(O)C2O)cc1Br (stereo not given in full) [OPRT inhibitor, 4]",6.43,6.70
"O=C(O)c1cc(=O)[nH]c(=O)n1CCN1CC(O)C(O)[C@H]1CO (stereo not given in full) [OPRT inhibitor, 10]",6.16,6.54
"O=c1[nH]c(=O)n(CCN2CC(O)[C@@H](CO)C2)cc1Br (stereo not given in full) [OPRT inhibitor, 11]",5.89,6.28
"O=C(O)c1ccncc1[C@@H]1N[C@H](COP(=O)(O)O)C(O)C1O (stereo not given in full) [OPRT inhibitor, 12]",4.81,5.37
"O=C(O)c1[nH]c(=O)[nH]c(=O)c1CN1CCCC1 [OPRT inhibitor, 13]",6.33,6.60
"O=C(O)c1[nH]c(=O)[nH]c(=O)c1CN1CC(O)[C@@H](COP(=O)(O)O)C1 (stereo not given in full) [OPRT inhibitor, 15]",6.30,6.62
"O=[N+]([O-])c1ccc([C@@H]2N[C@H](CO)C(O)C2O)cc1 (stereo not given in full) [OPRT inhibitor, 16]",6.32,6.64
"O=[N+]([O-])c1ccc(CN2CC(O)[C@@H](CO)C2)cc1 (stereo not given in full) [OPRT inhibitor, 17]",6.12,6.70
"O=[N+]([O-])c1ccc(CCN2CC(O)[C@@H](CO)C2)cc1 (stereo not given in full) [OPRT inhibitor, 18]",6.24,6.64
"O=[N+]([O-])c1ccc(CNC(CO)CO)cc1 [OPRT inhibitor, 19]",6.30,6.82
"O=[N+]([O-])c1ccc(CCNC(CO)CO)cc1 [OPRT inhibitor, 20]",6.29,6.92

# Stronger by pKi [1], values ahead:
pKi [1],pKi [2],SMILES
6.46,6.28,"O=c1[nH]c(=O)n(C[C@@H]2N[C@H](CO)C(O)C2O)cc1Br (stereo not given in full) [OPRT inhibitor, 3]"
6.46,6.85,"N#Cc1cc(=O)[nH]c(=O)n1C[C@@H]1N[C@H](COP(=O)(O)O)C(O)C1O (stereo not given in full) [OPRT inhibitor, 6]"
6.52,6.44,"N#Cc1cc(=O)[nH]c(=O)n1C[C@@H]1N[C@H](CO)C(O)C1O (stereo not given in full) [OPRT inhibitor, 5]"
6.57,6.96,"O=C1c2cc(=O)[nH]c(=O)n2C[C@H]2C(O)C(O)[C@@H](CO)N12 (stereo not given in full) [OPRT inhibitor, 7]"
6.57,7.10,"O=c1[nH]c(=O)n(CCN2CC(O)C(O)[C@H]2CO)cc1Br (stereo not given in full) [OPRT inhibitor, 9]"
6.66,7.08,"O=C(O)c1[nH]c(=O)[nH]c(=O)c1CN1CC(O)[C@@H](CO)C1 (stereo not given in full) [OPRT inhibitor, 14]"
6.72,6.92,"O=[N+]([O-])c1ccc(O[C@@H]2O[C@H](CO)C(O)C2O)cc1 (stereo not given in full) [OPRT inhibitor, 1]"
6.77,7.05,"O=C1c2cc(=O)[nH]c(=O)n2C[C@H]2C(O)C(O)[C@@H](COP(=O)(O)O)N12 (stereo not given in full) [OPRT inhibitor, 8]"
7.40,7.39,"O=[N+]([O-])c1ccc(O[C@@H]2O[C@H](COP(=O)(O)O)C(O)C2O)cc1 (stereo not given in full) [OPRT inhibitor, 2]"
